Bridge positions count the residues as written; N and C are the ends. Square brackets hold non-standard residues; d marks the D form. Peptide text beside a SMILES is read from it. ξ: configuration not given here. d2Nal = N[C@H](Cc1ccc2ccccc2c1)C(=O)O; Thr(3ξ) = CC(O)[C@H](N)C(=O)O
Experiments:
[1] = biological target: T1, somatostatin receptors sub-type 5 (Homo sapiens, UniProt P35346); test: Affinity for somatostatin receptors: inhibition of [125I-Tyr11]SRIF-14 binding to membranes of transfected CHO-K1 cells; details: competitive inhibition of [125I-Tyr11]SRIF-14 binding, 37° C.
T1 construct: expressed in transfected cells; membrane preparations
T1 sequence (P35346 whole entry): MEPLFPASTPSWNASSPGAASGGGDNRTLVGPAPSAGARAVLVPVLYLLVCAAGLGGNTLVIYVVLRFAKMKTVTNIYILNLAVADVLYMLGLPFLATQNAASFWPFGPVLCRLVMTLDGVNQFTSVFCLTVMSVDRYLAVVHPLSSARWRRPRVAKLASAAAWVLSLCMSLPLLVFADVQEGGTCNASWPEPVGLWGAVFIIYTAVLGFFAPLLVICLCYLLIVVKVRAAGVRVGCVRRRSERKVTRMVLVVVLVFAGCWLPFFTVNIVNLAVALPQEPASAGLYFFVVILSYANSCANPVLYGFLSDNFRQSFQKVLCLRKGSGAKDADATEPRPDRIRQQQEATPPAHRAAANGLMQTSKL

[2] = Static release test in PBS; assay type: physicochemical; details: 75 mM starting concentration, PBS pH 7.4, 37° C., % of free compound
Protocol: Release studies can be carried out on the octapeptide compounds according to the invention in the form of gel, solid, or in suspension. Two types of tests can be envisaged: static release tests and/or dynamic tests, both are briefly described hereafter.
The experimental parameters are common to both types of tests. The release medium is a liquid medium which is physico-chemically well-controlled, preferably a PBS (phosphate buffer saline) buffer adjusted to pH 7.4 and maintained at 37° C. The release curve is defined as the concentration of the studied compound in the dissolution medium (expressed in % of free compound) as a function of time (minutes, hours, days). To initiate the tests, a know quantity of sample is placed in the dissolution medium at time 0 (t=0 min/h/d), the sample being optionally conditioned in a device which is suited to its initial physical state (gel, solid, suspension). Measurements of the concentration of the compound in the release medium are carried out by one or more analytical methods which are well known in the state of the art such as UV-visible spectrophotometry or the HPLC (High Performance Liquid Chromatography). The parameters of the analytical methods are adjusted as a function of the physico-chemical characteristics of the compounds. […]

Compound: CC(C)[C@@H]1NC(=O)[C@H](CCCCN)NC(=O)[C@@H](Cc2c[nH]cn2)NC(=O)[C@H](Cc2ccc(O)cc2)NC(=O)[C@@H](NC(=O)[C@H](N)Cc2ccc3ccccc3c2)CSSC[C@@H](C(=O)N[C@H](C(N)=O)C(C)O)NC1=O (stereo partly drawn) [Example 3, H-D-2-Nal^1-cyclo(Cys^2-Tyr^3-D-His^4-Lys^5-Val^6-Cys^7)-Thr^8-NH2.2 CH3COOH] (H-[d2Nal]CY[dH]KVC[Thr(3ξ)]-NH2; disulfide 2-7)
- Ki [1]: ≤ 5 µM

Compound: CC(C)[C@@H]1NC(=O)[C@H](CCCCN)NC(=O)[C@@H](Cc2cccc3ccccc23)NC(=O)[C@H](Cc2ccc(O)cc2)NC(=O)[C@@H](NC(=O)[C@H](N)Cc2ccc3ccccc3c2)CSSC[C@@H](C(=O)N[C@H](C(N)=O)C(C)O)NC1=O (stereo partly drawn) [Example 6, H-D-2-Nal^1-cyclo(Cys^2Tyr^3-13-(1-naphthyl)-D-Ala^4-Lys^5-Val^6-Cys^7)-Thr^8-NH2.2 CH3COOH]
- Static release after 48 h [2]: 25%
- Ki [1]: ≤ 0.1 µM

Compound: CC(C)[C@@H]1NC(=O)[C@H](CCCCN)NC(=O)[C@@H](C)NC(=O)[C@H](Cc2ccc(O)cc2)NC(=O)[C@@H](NC(=O)[C@H](N)Cc2ccc3ccccc3c2)CSSC[C@@H](C(=O)N[C@H](C(N)=O)C(C)O)NC1=O (stereo partly drawn) [Example 4, H-D-2-Nal^1-cyclo(Cys^2Tyr^3-D-Ala^4-Lys^5-Val^6Cys^7)-Thr^8-NH2.2 CH3COOH] (H-[d2Nal]CY[dA]KVC[Thr(3ξ)]-NH2; disulfide 2-7)
- Static release after 48 h [2]: 85%
